Measurements taken from the supplement of paper PMC4862054.

What was measured:
Settings in all cases: incubation time: 72 h
MDA-MB-231 [1] = assay: drug sensitivity score (DSS), CellTiter-Glo (DSS (AUC-based score)); higher = stronger drug effect (viability inhibition or cytotoxicity); extreme values may be limits of the assay
How it was run: (§1)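 Each compound occupied 5 concentrations in 10-fold steps over its own 10,000-fold range in 384-well plates, into which breast cancer cell lines were seeded as 20 µl suspension. Following 72 h of incubation, CellTox Green fluorescence (485/520 nm) was measured, and CellTiter-Glo luminescence was measured after 10 min at room temperature. Plates were individually normalised to 0.1 % DMSO and a positive kill control. From the area under the fitted dose-response curve, a drug sensitivity score was calculated.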

HCC1937 [2] = assay: as above
How it was run: as §1

BT-549 [3] = assay: as above
How it was run: as §1

SK-BR-3 [4] = assay: as above
How it was run: as §1

CAL-51 = assay: normalised viability (% of control), CellTiter-Blue; higher = more viable cells (about 100 = DMSO control)
Protocol: (§2)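 DSRT, CellTiter-Blue viability, 72 h incubation. Signal is normalised to DMSO and benzethonium chloride controls. Value is the normalised response at dose 3.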

MFM-223 = assay: as above
Protocol: as §2

HCC1143 = assay: as above
Protocol: as §2

HDQ-P1 = assay: as above
Protocol: as §2

MDA-MB-231 [5] = assay: as above
Protocol: as §2

HCC1937 [6] = assay: as above
Protocol: as §2

MDA-MB-453 = assay: as above
Protocol: as §2

MDA-MB-468 = assay: as above
Protocol: as §2

BT-549 [7] = assay: as above
Protocol: as §2

SK-BR-3 [8] = assay: as above
Protocol: as §2

CAL-148 = assay: as above
Protocol: as §2

DU-4475 = assay: as above
Protocol: as §2

BT-474 = assay: as above
Protocol: as §2

Hs578T = assay: as above
Protocol: as §2

CAL-85-1 = assay: as above
Protocol: as §2

HCC1599 = assay: as above
Protocol: as §2

CAL-120 = assay: as above
Protocol: as §2

MDA-MB-436 = assay: as above
Protocol: as §2

SMILES | drug sensitivity score (MDA-MB-231 [1]) | drug sensitivity score (HCC1937 [2]) | drug sensitivity score (BT-549 [3]) | drug sensitivity score (SK-BR-3 [4]) | normalised viability (CAL-51; 10 nM) [%] | normalised viability (MFM-223; 100 nM) [%] | normalised viability (HCC1143; 100 nM) [%] | normalised viability (HDQ-P1; 10 nM) [%] | normalised viability (MDA-MB-231 [5]; 100 nM) [%] | normalised viability (HCC1937 [6]; 100 nM) [%] | normalised viability (MDA-MB-453; 10 nM) [%] | normalised viability (MDA-MB-468; 100 nM) [%] | normalised viability (BT-549 [7]; 100 nM) [%] | normalised viability (SK-BR-3 [8]; 100 nM) [%] | normalised viability (CAL-148; 10 nM) [%] | normalised viability (DU-4475; 10 nM) [%] | normalised viability (BT-474; 100 nM) [%] | normalised viability (Hs578T; 100 nM) [%] | normalised viability (CAL-85-1; 10 nM) [%] | normalised viability (HCC1599; 100 nM) [%] | other results
C[C@@]1(C(=O)Nc2ccc(F)nc2)CCCN1c1nc(Nc2cc(C3CC3)n[nH]2)c2cccn2n1 | 9.67 | 0 | 9.6 | 6.12 | 97 | 88.2 | 72.8 | 89.5 | 93.8 | 88.3 | 112 | 101 | 109 | 92.6 | 94 | 90.4 | 118 | 79.4 | 93.5 | 73.3 | normalised viability (CAL-120; 100 nM): 91.8%; normalised viability (MDA-MB-436; 100 nM): 92.6%
COC1=C2C[C@@H](C)C[C@H](OC)[C@H](O)[C@@H](C)/C=C(\C)[C@H](OC(N)=O)[C@@H](OC)/C=C\C=C(/C)C(=O)NC(=CC1=O)C2=O [Geldanamycin] | 5.32 | 5.93 | 5.68 | 5.98 | 104 | 50.6 | 44.3 | 109 | 31.4 | 31.3 | 120 | 33.8 | 39.3 | 22.8 | 104 | 119 | 33.6 | 56.8 | 105 | 83.9 | normalised viability (CAL-120; 100 nM): 25.1%; normalised viability (MDA-MB-436; 100 nM): 20%
CCS(=O)(=O)c1cccc(-c2cc(C(=O)NC3CCN(C)CC3)c(C)c3[nH]c4ncc(C)cc4c23)c1 [TAK-901] | 7.63 | 0 | 6.76 | 0 |  |  |  |  |  |  |  |  |  |  |  |  |  |  |  |  | normalised viability (CAL-51; 1 nM): 91.7%; normalised viability (MFM-223; 10 nM): 81.8%; normalised viability (HCC1143; 10 nM): 87.6%; normalised viability (HDQ-P1; 1 nM): 114%; normalised viability (MDA-MB-231 [5]; 10 nM): 103%; normalised viability (HCC1937 [6]; 10 nM): 120%; normalised viability (MDA-MB-453; 1 nM): 99.1%; normalised viability (MDA-MB-468; 10 nM): 105%; normalised viability (BT-549 [7]; 10 nM): 114%; normalised viability (SK-BR-3 [8]; 10 nM): 97.3%; normalised viability (CAL-148; 1 nM): 113%; normalised viability (DU-4475; 1 nM): 97%; normalised viability (BT-474; 10 nM): 113%; normalised viability (Hs578T; 10 nM): 131%; normalised viability (CAL-85-1; 1 nM): 98%; normalised viability (HCC1599; 10 nM): 103%; normalised viability (CAL-120; 10 nM): 86.8%; normalised viability (MDA-MB-436; 10 nM): 101%
COC1=CC(c2cc3ccccc3[nH]2)=N/C1=C\c1[nH]c(C)cc1C [Obatoclax] | 7.72 | 7.4 | 5.4 | 1.08 | 109 | 71.7 | 78 | 90.4 | 47.7 | 45.9 | 80.6 | 69 | 62.9 | 43.3 | 87.7 | 87.7 | 70.7 | 73.4 | 89.4 | 93.4 | normalised viability (CAL-120; 100 nM): 25.9%; normalised viability (MDA-MB-436; 100 nM): 58.7%
CS(=O)(=O)OCCCCOS(C)(=O)=O [Busulfan] | 0 | 0 | 0 | 0 |  |  |  |  |  |  |  |  |  |  |  |  |  |  |  |  | normalised viability (CAL-51; 100 nM): 95.3%; normalised viability (MFM-223; 1000 nM): 90.3%; normalised viability (HCC1143; 1000 nM): 124%; normalised viability (HDQ-P1; 100 nM): 98.1%; normalised viability (MDA-MB-231 [5]; 1000 nM): 99.5%; normalised viability (HCC1937 [6]; 1000 nM): 94.6%; normalised viability (MDA-MB-453; 100 nM): 102%; normalised viability (MDA-MB-468; 1000 nM): 114%; normalised viability (BT-549 [7]; 1000 nM): 85.1%; normalised viability (SK-BR-3 [8]; 1000 nM): 97.5%; normalised viability (CAL-148; 100 nM): 106%; normalised viability (DU-4475; 100 nM): 91.4%; normalised viability (BT-474; 1000 nM): 110%; normalised viability (Hs578T; 1000 nM): 91.2%; normalised viability (CAL-85-1; 100 nM): 115%; normalised viability (HCC1599; 1000 nM): 101%; normalised viability (CAL-120; 1000 nM): 113%; normalised viability (MDA-MB-436; 1000 nM): 93.3%
CCOc1cc2ncc(C#N)c(Nc3ccc(OCc4ccccn4)c(Cl)c3)c2cc1NC(=O)/C=C/CN(C)C [Neratinib] | 0 | 0 | 0 | 24.8 |  |  |  |  |  |  |  |  |  |  |  |  |  |  |  |  | normalised viability (CAL-51; 1 nM): 97.1%; normalised viability (MFM-223; 10 nM): 87.9%; normalised viability (HCC1143; 10 nM): 89.1%; normalised viability (HDQ-P1; 1 nM): 114%; normalised viability (MDA-MB-231 [5]; 10 nM): 118%; normalised viability (HCC1937 [6]; 10 nM): 106%; normalised viability (MDA-MB-453; 1 nM): 100%; normalised viability (MDA-MB-468; 10 nM): 107%; normalised viability (BT-549 [7]; 10 nM): 101%; normalised viability (SK-BR-3 [8]; 10 nM): 69.9%; normalised viability (CAL-148; 1 nM): 93.5%; normalised viability (DU-4475; 1 nM): 97.7%; normalised viability (BT-474; 10 nM): 105%; normalised viability (Hs578T; 10 nM): 84.1%; normalised viability (CAL-85-1; 1 nM): 96.5%; normalised viability (HCC1599; 10 nM): 99.7%; normalised viability (CAL-120; 10 nM): 84.9%; normalised viability (MDA-MB-436; 10 nM): 117%
CC(C)(C)c1cc(NC(=O)Nc2ccc(-c3cn4c(n3)sc3cc(OCCN5CCOCC5)ccc34)cc2)no1 [Quizartinib] | 0 | 0 | 0 | 0 |  |  |  |  |  |  |  |  |  |  |  |  |  |  |  |  | normalised viability (CAL-51; 1 nM): 107%; normalised viability (MFM-223; 10 nM): 86%; normalised viability (HCC1143; 10 nM): 95.2%; normalised viability (HDQ-P1; 1 nM): 91.8%; normalised viability (MDA-MB-231 [5]; 10 nM): 91.3%; normalised viability (HCC1937 [6]; 10 nM): 81.7%; normalised viability (MDA-MB-453; 1 nM): 99%; normalised viability (MDA-MB-468; 10 nM): 104%; normalised viability (BT-549 [7]; 10 nM): 101%; normalised viability (SK-BR-3 [8]; 10 nM): 91%; normalised viability (CAL-148; 1 nM): 100%; normalised viability (DU-4475; 1 nM): 109%; normalised viability (BT-474; 10 nM): 94.6%; normalised viability (Hs578T; 10 nM): 69.5%; normalised viability (CAL-85-1; 1 nM): 101%; normalised viability (HCC1599; 10 nM): 116%; normalised viability (CAL-120; 10 nM): 94.4%; normalised viability (MDA-MB-436; 10 nM): 110%
C[C@@H]1C=C2C(=O)O[C@@H]3CC[C@H](C1)[C@]23O [Galiellalactone] | 0 | 0 | 2.89 | 0 |  |  |  |  |  |  |  |  |  |  |  |  |  |  |  |  | normalised viability (CAL-51; 50 nM): 106%; normalised viability (MFM-223; 500 nM): 92.8%; normalised viability (HCC1143; 500 nM): 106%; normalised viability (HDQ-P1; 50 nM): 113%; normalised viability (MDA-MB-231 [5]; 500 nM): 91.8%; normalised viability (HCC1937 [6]; 500 nM): 90.9%; normalised viability (MDA-MB-453; 50 nM): 110%; normalised viability (MDA-MB-468; 500 nM): 105%; normalised viability (BT-549 [7]; 500 nM): 105%; normalised viability (SK-BR-3 [8]; 500 nM): 96.4%; normalised viability (CAL-148; 50 nM): 104%; normalised viability (DU-4475; 50 nM): 117%; normalised viability (BT-474; 500 nM): 136%; normalised viability (Hs578T; 500 nM): 101%; normalised viability (CAL-85-1; 50 nM): 97.4%; normalised viability (HCC1599; 500 nM): 91.1%; normalised viability (CAL-120; 500 nM): 85.6%; normalised viability (MDA-MB-436; 500 nM): 90.1%
COc1ccc(C2=N[C@@H](c3ccc(Cl)cc3)[C@@H](c3ccc(Cl)cc3)N2C(=O)N2CCNC(=O)C2)c(OC(C)C)c1 [Nutlin-3] | 0 | 0 | 0 | 0 | 94.3 | 83.2 | 84 | 113 | 88.3 | 106 | 98.7 | 95.8 | 105 | 72.8 | 95.6 | 95.4 | 109 | 101 | 99.1 | 118 | normalised viability (CAL-120; 100 nM): 84.8%; normalised viability (MDA-MB-436; 100 nM): 97.9%
